This is an account of results in the SangsterLogP compilation.

Data set [1] in a line: method code SF-AS, from DOI: 10.1039/ft9959100995.
Data set [2] in a line: method code SF-AS, from DOI: 10.1021/jm00051a006, PMID: 7996541.
Data set [3] is described as follows: method code SF-HPLC, from DOI: 10.1177/074823378700300403, PMID: 3433285.
Data set [4] in a line: method code SF-AS, from DOI: 10.1016/0006-2952(81)90362-2, PMID: 7271838. The note with it: pH 7.5.
Data set [5] can be described thus: method code SF-AS, from DOI: 10.1021/acs.inorgchem.5b01238, PMID: 26280387.
Test in data set [6]: not given
The source holds these as a separate data set.

The nature of data set [7]: method code SF-HPLC, from DOI: 10.1021/jm9509197, PMID: 8648601. As to conditions: pH 7.4.
Data set [8] is described as follows: method code SF, from DOI: 10.1016/0378-5173(86)90155-9. The note with it: pH 7.0.
Test in data set [9]: not given
The source holds these as a separate data set.

Data set [10] in a line: method code SF-AS, from DOI: 10.1016/s0003-2670(01)80868-0.
Data set [11] is described as follows: method code SF-AS, from Lippold, B.; Lichey, J. (1984). Transport of drugs through lipophilic polymer membranes. II. Influence of the partition and diffusion coefficients. Acta pharmaceutica technologica, 30(2)140-154.
Data set [12] can be described thus: method code SF-GLC, from DOI: 10.1016/j.chemosphere.2005.05.003, PMID: 15967478.
Data set [13] can be described thus: method code SF-HPLC, from DOI: 10.1016/0378-5173(90)90184-6. As to conditions: pH 4.0.
The nature of data set [14]: method code SF-GLC, from DOI: 10.1021/es60128a001.
Data set [15] can be described thus: method code SF-AS, from DOI: 10.1016/0005-2736(69)90054-6, PMID: 5349616. The note with it: pH 7.4.
Data set [16] in a line: method code SF-GLC, from DOI: 10.1021/jm00366a019, PMID: 6644745.
The nature of data set [17]: method code SF-HPLC, from DOI: 10.1016/0168-3659(92)90067-2.
Data set [18] can be described thus: method code SF, from DOI: 10.1016/s0378-5173(98)00231-2.
Test in data set [19]: not given
The source holds these as a separate data set.

Data set [20] can be described thus: method code SF-AS/HPLC, from Ellington, J. J. (1988). Octanol/water partition coefficients for evaluation of hazardous waste land disposal: Selected chemicals. US Environmental Protection Agency, Environmental Research ….
The nature of data set [21]: method code SF-RC, from DOI: 10.1002/jlcr.2580210110. As to conditions: pH 7.4.
The nature of data set [22]: method code SF, from DOI: 10.1248/yakushi1947.93.11_1452, PMID: 4273378.
Data set [23] can be described thus: method code SF-HPLC, from DOI: 10.1161/01.res.55.4.513, PMID: 6478555.
A short description of data set [24]: method code SF-AS, from DOI: 10.1007/bf02273190.
Test in data set [25]: not given
The source holds these as a separate data set.

Test in data set [26]: not given
This is another data set of the same source.

Test in data set [27]: not given
The source holds these as a separate data set.

Data set [28] in a line: method code SF-HPLC, from DOI: 10.1016/j.ejps.2015.05.008, PMID: 25968358. As to conditions: pH 7.4.
The nature of data set [29]: method code SF, from DOI: 10.1038/bjc.1982.190, PMID: 7150475.
Test in data set [30]: not given
This is another data set of the same source.

Data set [31] can be described thus: method code SF-NMR, from DOI: 10.1016/j.jpba.2012.12.010, PMID: 23298914.
Test in data set [32]: not given
This is another data set of the same source.

Data set [33] can be described thus: method code SF-AS, from DOI: 10.1021/bi00405a042.

With `CC(=O)OC[C@H]1O[C@@H](n2cc(C)c(=O)[nH]c2=O)C[C@@H]1O`, the logP was -0.25.
`CC(=O)Nc1ncc2ncn(COCCO)c2n1`: the logP in data set [1] was -1.33.
In data set [2], `CO[C@H]1N([C@H]2C[C@H](N=[N+]=[N-])[C@@H](CO)O2)C(=O)NC(=O)[C@@]1(C)Cl` came in with a logP of 0.52.
In the case of `CCN(CC)C(=O)c1ccccc1C`, the logP in [3] was found to be 2.02.
One may read the logD as lipophilicity at a set pH, counting ionised and neutral species. Read a low logD as a more hydrophilic compound. In turn, `CCCCOC(=O)c1ccc(N)cc1` gave a logD in [4] of 3.05.
Take `COP(=S)(OC)SCn1nnc2ccccc2c1=O`: the logP in data set [3] stood at 2.43.
As to `CCSC(=S)C=C(O)c1ccc(O)cc1`, the logP in data set [5] was determined as 1.97.
Turning to `CN(C)CCSCc1ccccc1`, the logP in data set [6] is 1.81.
`Nc1c2ncn(C3OC(CO)CC3F)c2nc[n+]1[O-]` (stereo unspecified) showed a log distribution coefficient (logD) in data set [7] of -0.98.
The molecule `O=C(NCc1ccc(O)cc1)c1ccccc1` displayed a logD in data set [8] of 1.87.
`O=C(O)c1ccc2ccccc2c1` showed a logP in [9] of 3.1.
On to `CCCCCC(=O)CC(=O)CCCCC`, for which, in data set [10], the logP amounted to 4.88.
Regarding `CCCCNC(=O)NS(=O)(=O)c1ccc(N)cc1`, the logP in [11] worked out at 1.18.
Turning to `C=C1CCC2CC1C2(C)C` (stereo unspecified), the logP in data set [12] amounted to 4.43.
For the molecule `CCCCCCCCNC(=O)n1cc(F)c(=O)[nH]c1=O`, the logD in data set [13] stood at 3.9.
On to `CCOP(=S)(OCC)SCn1c(=O)oc2cc(Cl)ccc21`, for which the logP in data set [14] is 4.3.
In data set [15], `Cc1cc2ccccc2n1C` returned a pH-dependent lipophilicity (logD) of 2.82.
Regarding `CC(C1=C(CCN(C)C)Cc2ccccc21)c1ccccn1` (stereo unspecified), in data set [11], the logP worked out at 2.7.
`CNC1CC2c3ccccc3C1C2O` (stereo unspecified) had a logD in data set [16] (pH 13.0) of 0.91.
In turn, `COc1ccc(C[C@H](NC(C)=O)C(=O)N[C@H](Cc2ccc(OC)cc2)C(N)=O)cc1` returned a logP in [17] of 1.19.
Regarding `OCCCCCCCc1ccccc1`, in [18], the logP was determined as 3.59.
As for `Clc1cc2c(oc3c(Cl)cc(Cl)c(Cl)c32)c(Cl)c1Cl`, in data set [19], the logP stood at 7.51.
In data set [20], `C#CC(C)(C)NC(=O)c1cc(Cl)cc(Cl)c1` came in with a logP of 3.43.
In turn, `FC(F)(c1ccccc1)C(F)(F)c1ccccc1` gave a logD in data set [21] of 5.
Molecule `OCCCCc1ccccc1` registered a logP in [18] of 2.33.
With `CCCCNC(=O)c1cccnc1`, the logP in data set [22] amounted to 0.9.
For the molecule `CCNCC(=O)Nc1c(C)cccc1C`, the logP in data set [23] was found to be 1.32.
`CCC(=O)N(C)c1ccc(S(=O)(=O)N(C)C)cc1` came in with a logP in [24] of 0.71.
As for `CCCCCCOC(=O)c1ccccc1C(=O)OCCCCCC`, in [25], the logP is 5.8.
For the molecule `N[C@@H]1C[C@@H]2C[C@H]1c1ccc(C(F)(F)F)cc12`, the logD in data set [16] (pH 12.0) turned out to be 3.21.
`CC(C)(N)Cc1ccccc1` came in with a logP in data set [26] of 1.9.
Turning to `Cc1cc(Cl)ccc1OCCCC(=O)O`, the logP in [27] stood at 3.28.
For `c1ccc2c(c1)Nc1ccccc1S2`, the logD in data set [28] was determined as 3.97.
The molecule `CO[C@@H]1N([C@H]2C[C@H](N=[N+]=[N-])[C@@H](CO)O2)C(=O)NC(=O)[C@@]1(C)Br` registered a logP in data set [2] of 1.22.
As to `CC(C)N(C(=O)SC/C(Cl)=C/Cl)C(C)C`, the logP in data set [20] amounted to 4.49.
In [14], `CCOP(=S)(OCC)Oc1ccc(Cl)cc1Cl` had a logP of 5.14.
The molecule `O=[N+]([O-])c1nccn1CC(O)CN1CCCCC1` (stereo unspecified) returned a logP in data set [29] of 0.93.
On to `CCCCC(=O)c1ccccc1`, for which the logD in data set [28] was found to be 3.03.
In the case of `CC(=O)N(C)c1ccc(S(=O)(=O)N(C)C)cc1`, the logP in [24] stood at 0.23.
In data set [23], `Cc1cccc(C)c1NC(=O)CN` returned a logP of 0.41.
`FC12CC3CC(CC(C3)C1)C2`: the logD in data set [21] stood at 5.7.
With `CCSc1nc(NC(C)C)nc(NC(C)C)n1`, the logP in [30] turned out to be 3.81.
Molecule `COC(=O)[C@@H](N)Cc1cc(I)c(O)c(I)c1` came in with a logD in data set [31] (pH 6.7) of 0.95.
Molecule `CC(=O)OCCOCn1cnc2c(=O)[nH]c(N)nc21` displayed a logP in data set [1] of -1.07.
On to `CCCCC(=O)CC(=O)CCCC`, for which the logP in data set [10] came to 3.56.
As to `CS(=O)CCCOc1ccc([N+](=O)[O-])cc1` (stereo unspecified), the logD in data set [8] is 0.93.
In [27], `Cc1cc(Cl)ccc1OC(C)C(=O)O` (stereo unspecified) had a logP of 2.95.
For `C=C1C=CC(C(C)C)CC1` (stereo unspecified), in data set [12], the logP came to 4.59.
Molecule `COC(=O)[C@@H](N)Cc1ccc(O)c(I)c1` returned a log distribution coefficient (logD) in [31] (pH 7.7) of 0.26.
In data set [29] (pH 7.4), `CCCCOCC(O)Cn1ccnc1[N+](=O)[O-]` (stereo unspecified) yielded a logD of 1.11.
In turn, `Cc1cn([C@H]2C[C@H](N=[N+]=[N-])[C@@H](CO)O2)c(=O)[nH]c1=O` yielded a logP of -0.09.
In data set [15], `c1ccc2c(c1)[nH]c1ccccc12` had a logD of 3.29.
Regarding `COC(C)(C(=O)O)c1ccc2ccccc2c1` (stereo unspecified), the logP in data set [9] is 3.18.
For `CN(C)c1nc(=O)n(C2CCCCC2)c(=O)n1C`, the logP in data set [30] is 1.85.
Regarding `O=[N+]([O-])c1ncnc2c1ncn2C1OC(CO)CC1F` (stereo unspecified), the logD in [7] is -0.4.
Take `C=Cc1ccc(C=C)cc1`: the logP in data set [32] is 3.2.
On to `CCSC(=S)C=C(O)c1ccccc1`, for which the logP in data set [5] amounted to 1.93.
`CC(=O)NC(Cc1ccc(O)cc1)C(N)=O` (stereo unspecified) came in with a logP in data set [17] of -0.7.
As for `COC(=O)c1ccccc1C(=O)OC`, the logP in data set [25] was 1.9.
Turning to `CC(C)(N)Cc1ccc(Cl)cc1`, in data set [26], the logP worked out at 2.6.
Regarding `CCCCCCNC(=O)n1cc(F)c(=O)[nH]c1=O`, the logD in data set [13] is 2.63.
Regarding `CCN(CC)C(=O)c1cccnc1`, in data set [22], the logP was determined as 0.86.
In the case of `CCCCOC(=O)c1ccc(O)cc1`, in data set [4], the log distribution coefficient (logD) came to 3.32.
For `CC(=O)NCCc1c[nH]c2ccccc12`, the logP in data set [33] was found to be 1.41.
For `CN1C[C@@H](N)C[C@@H]2c3cccc4[nH]cc(c34)C[C@H]21`, the logP in data set [6] was found to be 0.4.
Regarding `CC(=O)NCCc1ccccc1`, the logP in data set [33] amounted to 1.19.
